The values that follow come from patent US8809367B2, “1-1-Oxo-1,2,3,4-tetrahydroisoquinolin-7-yl)urea derivatives as N-formyl peptide receptor like-1 (FPRL-1) receptor modulators” (Allergan, Inc., priority 2011, dated 2014).

As usually defined, the pEC50 is −log10 of the EC50, conventionally taken in molar units.

Molecules are shown by their SMILES. pEC50: −log10 of the molar value.

This assay addresses T1, FPRL-1 (Homo sapiens, UniProt P25090).
T1 construct: expressed in transfected cells
T1 sequence (P25090 1-351): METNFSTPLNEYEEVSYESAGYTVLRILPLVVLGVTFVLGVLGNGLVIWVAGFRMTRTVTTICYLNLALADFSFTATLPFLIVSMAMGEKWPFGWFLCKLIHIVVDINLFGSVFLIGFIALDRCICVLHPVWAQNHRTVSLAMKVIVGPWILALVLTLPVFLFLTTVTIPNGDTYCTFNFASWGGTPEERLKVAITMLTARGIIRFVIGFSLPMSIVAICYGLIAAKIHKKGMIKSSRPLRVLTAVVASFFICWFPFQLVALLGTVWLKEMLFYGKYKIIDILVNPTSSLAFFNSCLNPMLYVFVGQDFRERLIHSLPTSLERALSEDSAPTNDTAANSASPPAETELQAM
Briefly: compound-induced calcium activity on FLIPR Tetra in CHO-Ga16 cells stably expressing FPRL1. The note with it: for FPRL-1 Ga16-CHO (eff): efficacy value in brackets under EC50; for pEC50: tested at 0.61 to 10,000 nM. In kind it is cell-based. As for the experimental part:
CHO-Ga16 cells stably expressing FPRL1 were cultured in (F12, 10% FBS, 1% PSA, 400 μg/ml geneticin and 50 μg/ml hygromycin) and HEK-Gqi5 cells stable expressing FPR1 were cultured in (DMEM high glucose, 10% FBS, 1% PSA, 400 μg/ml geneticin and 50 μg/ml hygromycin). In general, the day before the experiment, 18,000 cells/well were plated in a 384-well clear bottom poly-d-lysine coated plate. The following day the screening compound-induced calcium activity was assayed on the FLIPR^Tetra. The drug plates were prepared in 384-well microplates using the EP3 and the MultiPROBE robotic liquid handling systems. Compounds were tested at concentrations ranging from 0.61 to 10,000 nM. Results are expressed as EC50 (nM) and efficacy values.

Turning to `N#Cc1ccc(C2Cc3ccc(NC(=O)Nc4ccc(Br)cc4)cc3C(=O)N2CCCN)cc1` (centres unmarked) [Compound 6, 1-[2-(3-aminopropyl)-3-(4-cyanophenyl)-1-oxo-1,2,3,4-tetrahydroisoquinolin-7-yl]-3-(4-bromophenyl)urea], the “FPRL-1 Ga16-CHO (eff)” value is listed as “(1.00)” and the pEC50 was 7.51.

Take `C[S+]([O-])c1ccc(NC(=O)Nc2ccc3c(c2)C(=O)N(CCc2c[nH]cn2)C(c2ccc(C#N)cc2)C3)cc1` (centres unmarked) [Compound 29, 1-{3-(4-cyanophenyl)-2-[2-(1H-imidazol-4-yl)ethyl]-1-oxo-1,2,3,4-tetrahydroisoquinolin-7-yl}-3-[4-(methylsulfinyl)phenyl]urea]: the “FPRL-1 Ga16-CHO (eff)” value was “(0.96)” and the pEC50 was 7.66.

As to `CSc1ccc(NC(=O)Nc2ccc3c(c2)C(=O)N(CCCN)C(C)C3)cc1` (centres unmarked) [Compound 16, 1-[2-(3-aminopropyl)-3-methyl-1-oxo-1,2,3,4-tetrahydroisoquinolin-7-yl]-3-[4-(methylthio)phenyl]urea], the “FPRL-1 Ga16-CHO (eff)” value is given as “(0.89)” and the pEC50 was 7.82.

Turning to `CSc1ccc(NC(=O)Nc2ccc3c(c2)C(=O)N(CCc2c[nH]cn2)C(c2ccco2)C3)cc1` (centres unmarked) [Compound 23, 1-{3-(2-furyl)-2-[2-(1H-imidazol-4-yl)ethyl]-1-oxo-1,2,3,4-tetrahydroisoquinolin-7-yl}-3-[4-(methylthio)phenyl]urea], the “FPRL-1 Ga16-CHO (eff)” value is reported as “(0.83)” and the pEC50 was 7.72.

As to `CSc1ccc(NC(=O)Nc2ccc3c(c2)C(=O)N(CCc2c[nH]cn2)C(c2ccc(Cl)o2)C3)cc1` (centres unmarked) [Compound 24, 1-{3-(5-chloro-2-furyl)-2-[2-(1H-imidazol-4-yl)ethyl]-1-oxo-1,2,3,4-tetrahydroisoquinolin-7-yl}-3-[4-(methylthio)phenyl]urea], the “FPRL-1 Ga16-CHO (eff)” value was “(0.81)” and the pEC50 is 7.77.

As for `N#Cc1ccc(C2Cc3ccc(NC(=O)Nc4ccc(C(F)(F)F)cc4)cc3C(=O)N2CCc2c[nH]cn2)cc1` (centres unmarked) [Compound 19, 1-{3-(4-cyanophenyl)-2-[2-(1H-imidazol-4-yl)ethyl]-1-oxo-1,2,3,4-tetrahydroisoquinolin-7-yl}-3-[4-(trifluoromethyl)phenyl]urea], the “FPRL-1 Ga16-CHO (eff)” value is recorded as “(0.78)” and the pEC50 was 7.49.

As to `CNCCN1C(=O)c2cc(NC(=O)Nc3ccc(C(C)=O)cc3)ccc2CC1c1ccc(C#N)cc1` (centres unmarked) [Compound 3, 1-(4-acetylphenyl)-3-{3-(4-cyanophenyl)-2-[2-(methylamino)ethyl]-1-oxo-1,2,3,4-tetrahydroisoquinolin-7-yl}urea], the “FPRL-1 Ga16-CHO (eff)” value is on record as “(1.00)” and the pEC50 is 7.49.

Take `CSc1ccc(NC(=O)Nc2ccc3c(c2)C(=O)N(CCCN)[C@@H](c2ccc(C#N)cc2)C3)cc1` [Compound 11, (R)-1-[2-(3-aminopropyl)-3-(4-cyanophenyl)-1-oxo-1,2,3,4-tetrahydroisoquinolin-7-yl]-3-[4-(methylthio)phenyl]urea]: the “FPRL-1 Ga16-CHO (eff)” value is on record as “(0.97)” and the pEC50 was 8.48.

`N#Cc1ccc(C2Cc3ccc(NC(=O)Nc4ccc(C(F)(F)F)cc4)cc3C(=O)N2CCCN)cc1` (centres unmarked) [Compound 4, 1-[2-(3-aminopropyl)-3-(4-cyanophenyl)-1-oxo-1,2,3,4-tetrahydroisoquinolin-7-yl]-3-[4-(trifluoromethyl)phenyl]urea]: the “FPRL-1 Ga16-CHO (eff)” value is given as “(0.78)” and the pEC50 is 7.68.

As for `CC(=O)c1ccc(NC(=O)Nc2ccc3c(c2)C(=O)N(CCc2c[nH]cn2)C(c2ccc(Cl)c(Cl)c2)C3)cc1` (centres unmarked) [Compound 20, 1-(4-acetylphenyl)-3-{3-(3,4-dichlorophenyl)-2-[2-(1H-imidazol-4-yl)ethyl]-1-oxo-1,2,3,4-tetrahydroisoquinolin-7-yl}urea], the “FPRL-1 Ga16-CHO (eff)” value was “(1.04)” and the pEC50 is 7.55.
